From PubChem BioAssay (NCI)
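96-well plates; 48 h exposure; 5 concentrations. Endpoints by linear interpolation between flanking doses. Not reached: highest tested concentration assigned. At the GI50, growth is halved. TGI marks complete inhibition of growth.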

What was measured:
Test in all cases: NCI anticancer screen, dose series, 48 h
786-0 renal = test system: 786-0 renal
A498 renal = test system: A498 renal
A549 NSCLC = test system: A549 NSCLC
ACHN renal = test system: ACHN renal
BT-549 breast = test system: BT-549 breast
CAKI-1 renal = test system: CAKI-1 renal
CCRF-CEM leukemia = test system: CCRF-CEM leukemia
COLO 205 colon = test system: COLO 205 colon
DU-145 prostate = test system: DU-145 prostate
EKVX NSCLC = test system: EKVX NSCLC
HCC-2998 colon = test system: HCC-2998 colon
HCT-116 colon = test system: HCT-116 colon
HCT-15 colon = test system: HCT-15 colon
HOP-62 NSCLC = test system: HOP-62 NSCLC
HOP-92 NSCLC = test system: HOP-92 NSCLC
K-562 leukemia = test system: K-562 leukemia
KM12 colon = test system: KM12 colon
LOX IMVI melanoma = test system: LOX IMVI melanoma
M14 melanoma = test system: M14 melanoma
MCF7 breast = test system: MCF7 breast
MDA-MB-231 breast = test system: MDA-MB-231 breast
MDA-MB-435 = test system: MDA-MB-435
MOLT-4 leukemia = test system: MOLT-4 leukemia
NCI-H226 lung = test system: NCI-H226 lung
NCI-H23 lung = test system: NCI-H23 lung
NCI-H460 lung = test system: NCI-H460 lung
NCI/ADR-RES ovarian = test system: NCI/ADR-RES ovarian
OVCAR-3 ovarian = test system: OVCAR-3 ovarian
OVCAR-4 ovarian = test system: OVCAR-4 ovarian
OVCAR-5 ovarian = test system: OVCAR-5 ovarian
OVCAR-8 ovarian = test system: OVCAR-8 ovarian
PC-3 prostate = test system: PC-3 prostate
RPMI-8226 leukemia = test system: RPMI-8226 leukemia
RXF 393 renal = test system: RXF 393 renal
SF-268 CNS = test system: SF-268 CNS
SF-295 CNS = test system: SF-295 CNS
SK-MEL-2 melanoma = test system: SK-MEL-2 melanoma
SK-MEL-28 melanoma = test system: SK-MEL-28 melanoma
SK-MEL-5 melanoma = test system: SK-MEL-5 melanoma
SK-OV-3 ovarian = test system: SK-OV-3 ovarian
SNB-19 CNS = test system: SNB-19 CNS
SNB-75 CNS = test system: SNB-75 CNS
SW-620 colon = test system: SW-620 colon
T-47D breast = test system: T-47D breast
TK-10 renal = test system: TK-10 renal
U251 CNS = test system: U251 CNS
UACC-257 melanoma = test system: UACC-257 melanoma
UACC-62 melanoma = test system: UACC-62 melanoma
UO-31 renal = test system: UO-31 renal
HS 578T breast = test system: HS 578T breast
IGROV1 ovarian = test system: IGROV1 ovarian
SN12C renal = test system: SN12C renal

## CN(C)C(=O)C(F)(F)C(c1ccccc1)C1C(=O)N(C)C(=O)N(C)C1=O (stereo not drawn)
786-0 renal
  TGI: > 100 µM
A498 renal
  TGI: > 100 µM
A549 NSCLC
  TGI: > 100 µM
ACHN renal
  TGI: > 100 µM
BT-549 breast
  TGI: > 100 µM
CAKI-1 renal
  TGI: > 100 µM
CCRF-CEM leukemia
  TGI: > 100 µM
COLO 205 colon
  TGI: > 100 µM
DU-145 prostate
  TGI: > 100 µM
EKVX NSCLC
  TGI: > 100 µM
HCC-2998 colon
  TGI: > 100 µM
HCT-116 colon
  TGI: > 100 µM
HCT-15 colon
  TGI: > 100 µM
HOP-62 NSCLC
  TGI: > 100 µM
HOP-92 NSCLC
  TGI: > 100 µM
K-562 leukemia
  TGI: > 100 µM
KM12 colon
  TGI: > 100 µM
LOX IMVI melanoma
  TGI: > 100 µM
M14 melanoma
  TGI: > 100 µM
MCF7 breast
  TGI: > 100 µM
MDA-MB-231 breast
  TGI: > 100 µM
MDA-MB-435
  TGI: > 100 µM
MOLT-4 leukemia
  TGI: > 100 µM
NCI-H226 lung
  TGI: > 100 µM
NCI-H23 lung
  TGI: > 100 µM
NCI-H460 lung
  TGI: > 100 µM
NCI/ADR-RES ovarian
  TGI: > 100 µM
OVCAR-3 ovarian
  TGI: > 100 µM
OVCAR-4 ovarian
  TGI: > 100 µM
OVCAR-5 ovarian
  TGI: > 100 µM
OVCAR-8 ovarian
  TGI: > 100 µM
PC-3 prostate
  TGI: > 100 µM
RPMI-8226 leukemia
  TGI: > 100 µM
RXF 393 renal
  TGI: > 100 µM
SF-268 CNS
  TGI: > 100 µM
SF-295 CNS
  TGI: > 100 µM
SK-MEL-2 melanoma
  TGI: > 100 µM
SK-MEL-28 melanoma
  TGI: > 100 µM
SK-MEL-5 melanoma
  TGI: > 100 µM
SK-OV-3 ovarian
  TGI: > 100 µM
SNB-19 CNS
  TGI: > 100 µM
SNB-75 CNS
  TGI: > 100 µM
SW-620 colon
  TGI: > 100 µM
T-47D breast
  TGI: > 100 µM
TK-10 renal
  TGI: > 100 µM
U251 CNS
  TGI: > 100 µM
UACC-257 melanoma
  TGI: > 100 µM
UACC-62 melanoma
  TGI: > 100 µM
UO-31 renal
  TGI: > 100 µM

## CCCS(=O)(=O)Nc1ccc(F)c(C(=O)c2c[nH]c3ncc(-c4ccc(OCCCC5CCCCN5)nc4)cc23)c1F (stereo not drawn)
A549 NSCLC
  GI50: > 100 µM
  TGI: > 100 µM
ACHN renal
  GI50: 16.9 µM
  TGI: > 100 µM
EKVX NSCLC
  GI50: > 100 µM
  TGI: > 100 µM
HCC-2998 colon
  GI50: > 100 µM
  TGI: > 100 µM
HCT-15 colon
  GI50: > 100 µM
  TGI: > 100 µM
HS 578T breast
  GI50: 0.493 µM
  TGI: 2.82 µM
IGROV1 ovarian
  GI50: 0.865 µM
  TGI: > 100 µM
MDA-MB-435
  GI50: 0.03 µM
  TGI: > 100 µM
NCI/ADR-RES ovarian
  GI50: > 100 µM
  TGI: > 100 µM
OVCAR-8 ovarian
  GI50: 9.63 µM
  TGI: > 100 µM
SF-295 CNS
  GI50: 3.97 µM
  TGI: > 100 µM
SK-OV-3 ovarian
  GI50: 0.875 µM
  TGI: > 100 µM
SN12C renal
  GI50: 2.14 µM
  TGI: > 100 µM
T-47D breast
  GI50: 1.28 µM
  TGI: 10.7 µM
TK-10 renal
  GI50: 7.79 µM
  TGI: > 100 µM
UACC-257 melanoma
  GI50: 0.0136 µM
  TGI: 0.0967 µM
UO-31 renal
  GI50: > 100 µM
  TGI: > 100 µM
